Reference: PMC10787790, “Isatin-tethered halogen-containing acylhydrazone derivatives as monoamine oxidase inhibitor with neuroprotective effect” (Scientific Reports, 2024)

Key:
MAO-B = target: T1, MAO-B (Homo sapiens, UniProt P27338); assay: MAO-B inhibition assay (continuous, benzylamine); conditions: for remaining activity at 10 µM: read-out: Residual activity at 10 µM (%) MAO-B; for SI (selectivity index): (IC50 of MAO-A)/(IC50 of MAO-B), MAO-B compared to MAO-A
T1 sequence (P27338 1-520): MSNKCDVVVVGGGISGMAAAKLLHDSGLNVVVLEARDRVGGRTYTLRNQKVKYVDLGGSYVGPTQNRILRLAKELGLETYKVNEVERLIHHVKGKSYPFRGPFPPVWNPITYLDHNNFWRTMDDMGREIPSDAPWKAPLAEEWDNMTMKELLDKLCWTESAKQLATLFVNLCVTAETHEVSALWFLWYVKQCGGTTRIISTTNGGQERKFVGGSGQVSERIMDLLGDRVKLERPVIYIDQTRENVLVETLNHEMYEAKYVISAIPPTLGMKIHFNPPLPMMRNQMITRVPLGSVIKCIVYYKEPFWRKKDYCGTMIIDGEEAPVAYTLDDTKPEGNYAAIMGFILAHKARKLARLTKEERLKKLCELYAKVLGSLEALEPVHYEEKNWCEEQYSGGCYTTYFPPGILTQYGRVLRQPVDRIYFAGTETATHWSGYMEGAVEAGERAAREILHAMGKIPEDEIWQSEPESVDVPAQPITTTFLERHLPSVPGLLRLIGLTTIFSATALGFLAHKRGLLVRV
Method: (§1) MAO-A and MAO-B activities were determined using 0.06 mM kynuramine and 0.3 mM benzylamine, respectively[39]. […] Concentrations of the substrates used were around 2.0 times of their Km values for the enzyme assay. The absorbance was measured using the continuous assay method described previously[40].
(§2) The selectivity index (SI) values of the compounds were calculated as follows: (IC50 of MAO-A)/(IC50 of MAO-B)[42].

MAO-A [1] = target: T2, MAO-A (Homo sapiens, UniProt P21397); assay: MAO-A inhibition assay (continuous, kynuramine); conditions: for remaining activity at 10 µM: read-out: Residual activity at 10 µM (%) MAO-A
T2 sequence (P21397 1-527): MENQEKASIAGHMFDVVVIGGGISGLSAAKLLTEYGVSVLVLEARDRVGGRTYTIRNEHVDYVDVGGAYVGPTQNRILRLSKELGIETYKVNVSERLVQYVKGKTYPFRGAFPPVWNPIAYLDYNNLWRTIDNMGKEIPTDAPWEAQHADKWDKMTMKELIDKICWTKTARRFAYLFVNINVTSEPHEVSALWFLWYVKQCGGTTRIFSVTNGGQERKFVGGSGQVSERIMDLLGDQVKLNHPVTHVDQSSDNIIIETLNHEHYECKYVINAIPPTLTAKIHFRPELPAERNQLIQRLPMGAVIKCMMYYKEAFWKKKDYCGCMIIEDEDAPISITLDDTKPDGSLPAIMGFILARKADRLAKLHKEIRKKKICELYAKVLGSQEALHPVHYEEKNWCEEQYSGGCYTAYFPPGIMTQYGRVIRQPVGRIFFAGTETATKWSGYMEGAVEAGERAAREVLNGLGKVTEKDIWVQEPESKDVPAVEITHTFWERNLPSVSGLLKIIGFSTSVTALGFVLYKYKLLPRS
Method: as §1, §2

[2] = Parallel artificial membrane permeability assay (PAMPA), BBB; type: in vitro ADME; conditions: for Experimental Pe: pH 7.4; for Papp: pH 7.4, read-out: Experimental Pe
Method: The blood–brain barrier (BBB) permeation abilities of the four lead molecules were analyzed using the PAMPA method[44],[45]. The detailed procedure is explained in the Supplementary Data.
Using a microtiter plate with 96 wells and a Millipore filter plate with 96 wells (ipvh, 125 μm thick filter, 0.45 μm pore), which was then saturated with 0.1 mL of n-dodecane, a "sandwich" structure was created in PAMPA. Stock solutions of drug samples in DMSO were created at a 10 mM concentration. The stock solution was diluted in buffer at pH 7.4 before being added to a 96-well filter plate in order to achieve a final sample concentration (0.01, 0.1, and 1 mM) and keep the DMSO concentration at 1% (v/v). The final dilutions were divided into 270 μL for the donor wells and 200 μL of pH 7.4 buffer for the acceptor well. The donor plate was placed on the top of the acceptor filter plate to form a sandwich (comprising of a synthetic lipid membrane in the center, an aqueous receiver on […], and an aqueous donor carrying an analyte on the bottom.). The test substance diffuses from the donor well across the lipid membrane and into the acceptor well. The sandwich is said to have been intact when the penetration occurred. The drug concentration in the reference, donor, and receiver wells was measured using UV spectroscopy. The rate of penetration is calculated using the following expression.
Log Pe = -ln [1-CA /Equilibrium]/A× (1/VD + 1/VA) × t

ROS = ROS assay (DCF) in LPS-treated SH-SY5Y cells; type: cell-based, human
Method: (§3) Subcultures were performed every two days.
The OxiSelect Intracellular ROS Assay Kit (Cell Biolabs Inc., San Diego, CA, USA) was used to quantify the levels of the fluorescent probe 20,70-dichlorodihydrofluorescin diacetate (DCFH-DA).

NF-kB = NF-kB expression in LPS-induced SH-SY5Y cells
IL-6 = IL-6 expression in LPS-induced SH-SY5Y cells; type: cell-based, human; conditions: LPS 1 µg/mL 2 h, compound 24 h, SH-SY5Y
MAO-A [3] = target: T2, MAO-A; assay: Enzyme kinetics, Lineweaver-Burk and secondary plots, MAO-A
Method: Enzyme inhibition patterns and Ki values were determined by comparing Lineweaver–Burk (LB) plots and their secondary plots, respectively[40].

TNF-α = TNF-α expression in LPS-induced SH-SY5Y cells; type: cell-based, human; conditions: LPS 1 µg/mL 2 h, compound 24 h, SH-SY5Y
CAT = assay: Catalase (CAT) activity in LPS-induced SH-SY5Y cells; type: cell-based, human; conditions: 10 µM/mL
Method: as §3
CAT activity was determined according to Aebi[50]. A human CAT ELISA kit was purchased commercially (KrishGen Biosystems). Following treatment, the adherent cells were scraped off, suspended in cold PBS, sonicated, and placed on ice. The medium was then removed from each well. The 3 mL CAT assay combination comprised of extract (0.05 mL), phosphate buffer (1.5 mL, 100 mM buffer, pH 7.0), H2O2 (0.5 mL), and distilled water (0.95 mL). The absorbance decreased at 450 nm. CAT activity was reported in terms of ng/mL of H2O2 oxidized per min per gram[46]–[49].

MAO-A [4] = target: T2, MAO-A; assay: Reversibility study by dialysis, MAO-A
Method: Reversibility test was performed by using Dialyzer DiaEasy™ (6–8 kDa, BioVision, St. Grove, MA, USA).

SOD = assay: Superoxide dismutase (SOD) activity in LPS-induced SH-SY5Y cells; type: cell-based, human; conditions: 10 µM/mL
Method: Using a superoxide dismutase assay kit (KrishGen Biosystems, India), which measures the concentration of formazan crystals using a colorimetric assay, SOD activity was determined. In this test, a tetrazolium salt was used to detect the superoxide radicals produced by xanthine oxidase and hypoxanthine. After treatment, the medium was removed, centrifuged at 2000 rpm for 5 min at room temperature, and placed on ice. A diluted radical detector and lysed cell supernatant or a standard were applied to each well of a 96-well plate to evaluate SOD activity using an ELISA kit, according to the manufacturer’s instructions. The absorbance of the wells was then determined after 5 min at a wavelength of 450 nm using a microplate reader (Safire2, Tecan Group Ltd., Maennedorf, Switzerland).

GPx = assay: Glutathione peroxidase (GPx) activity in LPS-induced SH-SY5Y cells; type: cell-based, human; conditions: 10 µM/mL
Source text: A GPx assay kit (KrishGen Biosystems) was used to evaluate the GPx activity. The kit uses a colorimetric assay to determine the quantity of GPx. Glutathione reductase (GR) mediates GPx activity Oxidized glutathione (GSSG) is produced via hydroperoxide reduction by GPx. This glutathione is recycled back to its reduced state by GR and NADPH. The NADPH to NADP + oxidation was accompanied by a decrease in absorbance at 450 nm (A450). When GPx activity was rate-limiting, the rate of decline in A450 was directly correlated with GPx activity. Following treatment, adherent cells were removed from the wells, suspended in cold PBS, sonicated, and frozen. In accordance with the ELISA kit’s instructions, the lysed cell supernatant, or standard, was applied to all 96 wells of a plate together with a diluted radical detector to assay the activity of GPx. A microplate reader was used to measure the absorbance of the wells after 5 min[46]–[49]. Results were obtained in ng/mL.

SMILES | IC50 (MAO-B) [µM] | remaining activity at 10 µM (MAO-B) [%] | IC50 (MAO-A [1]) [µM] | remaining activity at 10 µM (MAO-A [1]) [%] | SI (selectivity index) (MAO-B) | Prediction (CNS permeation class) [2] | further results
O=C1Nc2ccc(F)cc2/C1=N/NC(=O)c1ccccc1 [IS9] | 9.09 ± 1.28 | 45.6 ± 6.28 | > 40 | 67.4 ± 1 |  |  | 
O=C1Nc2ccc(F)cc2/C1=N/NC(=O)c1ccc(Cl)cc1 [IS10] | 3.99 ± 0.472 | 42.6 ± 0.82 | 18.3 ± 0.729 | 54.1 ± 0.78 | 4.58 |  | 
O=C1Nc2ccc(F)cc2/C1=N/NC(=O)c1ccc(Br)cc1 [IS11] | 10.6 ± 0.256 | 53.2 ± 2.6 | 13.7 ± 0.396 | 43.56 ± 0.42 | 1.30 |  | 
O=C1Nc2ccc(F)cc2/C1=N/NC(=O)c1ccc(F)cc1 [IS12] | 7.1 ± 0.956 | 44.3 ± 4.48 | 4.29 ± 0.552 | 36.6 ± 1.6 | 0.60 |  | 
O=C1Nc2ccc(Cl)cc2/C1=N/NC(=O)c1ccccc1 [IS13] |  |  |  |  |  | CNS+ (Pe (10^−6 cm/s) > 4.00: CNS + (high permeation)) | CNS/BBB permeability in words [2]: high permeability and CNS bioavailability; Experimental Pe [2]: > 4 ×10⁻⁶ cm/s; Papp [2]: 4.66 ± 0.18 ×10⁻⁶ cm/s
O=C1Nc2ccc(Cl)cc2/C1=N/NC(=O)c1ccc(Cl)cc1 [IS14] | 0.234 ± 0.008 | 23 ± 2.48 | 11.3 ± 0.414 | 53.1 ± 0.91 | 48.15 |  | 
O=C1Nc2ccc(Cl)cc2/C1=N/NC(=O)c1ccc(Br)cc1 [IS15] | 0.337 ± 0.007 | 12.5 ± 3.64 | 1.85 ± 0.085 | 34.7 ± 0.71 | 5.50 | CNS+ (Pe (10^−6 cm/s) > 4.00: CNS + (high permeation)) | DCF intensity decrease at 10 µM (ROS; 10 µM/mL (10 µM), vs LPS-induced cells): effective DCF intensity decrease; DCF expression (ROS) vs cells treated with LPS alone (ROS; LPS-induced SH-SY5Y): significantly inhibited (p < 0.0001); NF-kB level vs LPS-treated group (NF-kB; LPS 1 µg/mL 2 h, compound 24 h, SH-SY5Y): significantly (p < 0.0001) reduced; NF-kB expression compared to IS6 and IS7 (NF-kB; LPS-treated cell lines): significantly lower; IL-6 level vs LPS-treated group (IL-6): significantly (p < 0.0001) reduced; Ki (MAO-A [3]): 1 ± 0.171 µM; Type of MAO-A inhibition (MAO-A [3]; LB plot): competitive; TNF-alpha level vs LPS-treated group (TNF-α): significantly (p < 0.0001) reduced; CNS/BBB permeability in words [2]: high permeability and CNS bioavailability; Experimental Pe [2]: > 4 ×10⁻⁶ cm/s; Papp [2]: 4.39 ± 0.3 ×10⁻⁶ cm/s; Fold higher MAO-A inhibition than IS7 (MAO-A [1]; relative to IS7): 10.35 times; Fold higher MAO-A inhibition than IS13 (MAO-A [1]; relative to IS13): 11.94 times; CAT (cellular anti-oxidant enzyme) effect (CAT): enhancing the enzyme activity; Reversibility of MAO-A inhibition (MAO-A [4]): reversible-type inhibitors; SOD (cellular anti-oxidant enzyme) effect (SOD): enhancing the enzyme activity; GPx (cellular anti-oxidant enzyme) effect (GPx): enhancing the enzyme activity
O=C1Nc2ccc(Cl)cc2/C1=N/NC(=O)c1ccc(F)cc1 [IS16] | 3.85 ± 0.392 | 26.1 ± 4.39 | 8.45 ± 0.395 | 43.7 ± 1.65 | 2.20 |  | 
C#CCN(C)[C@H](C)Cc1ccccc1 [Selegiline, reference compound] |  |  |  |  |  | CNS+ (Pe (10^−6 cm/s) > 4.00: CNS + (high permeation)) | 
